# Values quoted from earlier work, collected in US12121566B2, “Methods for treating gout” (Horizon Therapeutics USA, Inc., priority 2019, dated 2024).
# Read-outs that look alike come from different tables or passages of the source.
# Tests used:
# [1] = tested on: patients treated with allopurinol; settings: cited from earlier work
# [2] = cited from earlier work; for detectable in urine: after 8 hours
# serum proteins = settings: cited from earlier work
# [3] = cited from earlier work
Compound,patients who develop allergic reactions [1],severe hypersensitivity syndrome [1],detectable in urine [2],bound to serum proteins (serum proteins) [%],oral absorption ([2]; oral administration),"stability in solution ([3]; excess sodium hydroxide (0.1N), especially on warming)",solubility in water ([3]; may be dissolved with one molar equivalent of alkali),stability in solution ([3]; neutral or acid pH)
Oc1ncnc2[nH]ncc12 [allopurinol],Approximately 2%,about 0.4%,–,–,–,–,–,–
"Sc1ncnc2nc[nH]c12 [mercaptopurine, 6-mercaptopurine]",–,–,no azathioprine or mercaptopurine is detectable,30,–,–,–,–
"Cn1cnc([N+](=O)[O-])c1Sc1ncnc2nc[nH]c12 [azathioprine, 6-[(1-methyl-4-nitro-1H-imidazol-5-yl)thio]-1H-purine]",–,–,no azathioprine or mercaptopurine is detectable,30,well absorbed,hydrolysis to mercaptopurine occurs,insoluble,stable
